Results as given in PubChem BioAssay AID1259411 (Chemical Carcinogenesis Research Information System (CCRIS), 2018).
Active and inactive are the calls of the source. How the calls were made is not given here.

Test system: rodent carcinogenicity bioassays, tumor incidence
Test: CCRIS carcinogenicity studies
Conditions: Dose: 0, Dose: 0
Outline: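 NCI-built, expert-reviewed records of carcinogenicity and related test outcomes (mutagenicity, tumor promotion/inhibition) compiled from published and report sources, historical span 1985-2011, not updated.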

Measured: carcinogen call

Cc1c2ccccc2c(COS(=O)(=O)O)c2ccc3ccccc3c12
inactive: Species: MOUSE, Strain/Sex: STRAIN-A/FEMALE, Route: INTRAPERITONEAL, 0.1 001;0.003, 0.01 UMOL/G IN 5 µL DMSO/G ONCE AT 4-6 WK OF AGE (STUDY DURATION: 6 MO), 0.1 001;0.003, 0.01 UMOL/G IN 5 µL DMSO/G ONCE AT 4-6 WK OF AGE (STUDY DURATION: 6 MO) inactive; negative | Species: RAT, Strain/Sex: SPRAGUE-DAWLEY/FEMALE, Route: SUBCUTANEOUS, 2 UMOL IN 0.25 ML TRIOCTANOIN INTO LEFT HIND LEG AT ABOUT 40 D OF AGE FOLLOWED BY A SECOND DOSE 6 D LATER (STUDY DURA inactive; negative | Species: RAT, Strain/Sex: SPRAGUE-DAWLEY/FEMALE, Route: SUBCUTANEOUS, 2 UMOL IN 0.25 ML TRIOCTANOIN ONCE INTO LEFT HIND LEG AT ABOUT 40 D OF AGE (STUDY DURATION: 16 MO) inactive; negative
active: Species: MOUSE, Strain/Sex: B6C3F1/MALE, Route: INTRAPERITONEAL, 0.001, 0.003, 0.01 UMOL/G IN 5 µL/G DMSO ONCE ON D 12 OF AGE (STUDY DURATION: 10 MO), 0.001, 0.003, 0.01 UMOL/G IN 5 µL/G DMSO ONCE ON D 12 OF AGE (STUDY DURATION: 10 MO), Tumor Site: Type of Lesion: LIVER: HEPATOMA active; positive | Species: MOUSE, Strain/Sex: B6C3F1/MALE, Route: INTRAPERITONEAL, 0.0025 UMO1/G IN 10 ML/G TRIOCTANOIN ON 12, 16, 20, AND 24 D OF AGE (STUDY DURATION: 10 MO), Tumor Site: Type of Lesion: LIVER: HEPATOMA active; positive | Species: MOUSE, Strain/Sex: B6C3F1/MALE, Route: INTRAPERITONEAL, 0.0025 UMOL/G IN 10 µL/G TRIOCTANOIN ONCE ON D 12 OF AGE (STUDY DURATION: 10 MO), Tumor Site: Type of Lesion: LIVER: HEPATOMA active; positive | Species: RAT, Strain/Sex: SPRAGUE-DAWLEY/FEMALE, Route: SUBCUTANEOUS, 0.2 UMOL 3/WK FOR 20 DOSES (STUDY DURATION: 52 WK), Tumor Site: Type of Lesion: INJECTION SITE: SARCOMA active; positive

CN(C)C=O
inactive: Species: MOUSE, Strain/Sex: CRL:CD-1(ICR)BR/FEMALE, Route: INHALATION, 25, 100, 400 PPM 6 HR/D 5 D/WK FOR 18 MO (STUDY DURATION: 18 MO), 25, 100, 400 PPM 6 HR/D 5 D/WK FOR 18 MO (STUDY DURATION: 18 MO) inactive; negative | Species: MOUSE, Strain/Sex: CRL:CD-1(ICR)BR/MALE, Route: INHALATION, 25, 100, 400 PPM 6 HR/D 5 D/WK FOR 18 MO (STUDY DURATION: 18 MO), 25, 100, 400 PPM 6 HR/D 5 D/WK FOR 18 MO (STUDY DURATION: 18 MO) inactive; negative | Species: RAT, Strain/Sex: CRL:CD BR/FEMALE, Route: INHALATION, 25, 100, 400 PPM 6 HR/D 5 D/WK FOR 24 MO (STUDY DURATION: 24 MO), 25, 100, 400 PPM 6 HR/D 5 D/WK FOR 24 MO (STUDY DURATION: 24 MO) inactive; negative | Species: RAT, Strain/Sex: CRL:CD BR/MALE, Route: INHALATION, 25, 100, 400 PPM 6 HR/D 5 D/WK FOR 24 MO (STUDY DURATION: 24 MO), 25, 100, 400 PPM 6 HR/D 5 D/WK FOR 24 MO (STUDY DURATION: 24 MO) inactive; negative

CCc1ccccc1
inactive: Species: RAT, Strain/Sex: STRAIN-CD/FEMALE, Route: INTRAGASTRIC, 500 MG/KG IN OLIVE OIL 1/D 4-5 D/WK FOR 104 WK (STUDY DURATION: 104 WK) inactive; negative | Species: RAT, Strain/Sex: STRAIN-CD/MALE, Route: INTRAGASTRIC, 500 MG/KG IN OLIVE OIL 1/D 4-5 D/WK FOR 104 WK (STUDY DURATION: 104 WK) inactive; negative
active: Species: MOUSE, Strain/Sex: B6C3F1/FEMALE, Route: INHALATION, 75, 250, 750 PPM 6 HR/D 5 D/WK FOR 103 WK (STUDY DURATION: 104 WK), 75, 250, 750 PPM 6 HR/D 5 D/WK FOR 103 WK (STUDY DURATION: 104 WK), Tumor Site: Type of Lesion: LIVER: HEPATOCELLULAR ADENOMA, HEPATOCELLULAR ADENOMA OR CARCINOMA active; positive | Species: MOUSE, Strain/Sex: B6C3F1/MALE, Route: INHALATION, 75, 250, 750 PPM 6 HR/D 5 D/WK FOR 103 WK (STUDY DURATION: 104 WK), 75, 250, 750 PPM 6 HR/D 5 D/WK FOR 103 WK (STUDY DURATION: 104 WK), Tumor Site: Type of Lesion: LUNG: ALVEOLAR/BRONCHIOLAR ADENOMA, ALVEOLAR/BRONCHIOLAR ADENOMA OR CARCINOMA active; positive | Species: RAT, Strain/Sex: F344/FEMALE, Route: INHALATION, 75, 250, 750 PPM 6 HR/D 5 D/WK FOR 104 WK (STUDY DURATION: 105 WK), 75, 250, 750 PPM 6 HR/D 5 D/WK FOR 104 WK (STUDY DURATION: 105 WK), Tumor Site: Type of Lesion: KIDNEY (RENAL TUBULE): ADENOMA active; positive | Species: RAT, Strain/Sex: F344/MALE, Route: INHALATION, 75, 250, 750 PPM 6 HR/D 5 D/WK FOR 104 WK (STUDY DURATION: 105 WK), 75, 250, 750 PPM 6 HR/D 5 D/WK FOR 104 WK (STUDY DURATION: 105 WK), Tumor Site: Type of Lesion: KIDNEY (RENAL TUBULE): ADENOMA active; positive

N#CCCC(Br)(C#N)CBr (stereo unspecified)
inactive: Species: Mouse, Strain/Sex: B6C3F1/Female (50/Group), Route: Dermal, 0.6, 2, 6 mg/kg in 95% ethanol on clipped area of skin 5 d/wk for 2 yr, 0.6, 2, 6 mg/kg in 95% ethanol on clipped area of skin 5 d/wk for 2 yr inactive; negative | Species: Mouse, Strain/Sex: B6C3F1/Male (50/Group), Route: Dermal, 0.6, 2, 6 mg/kg in 95% ethanol on clipped area of skin 5 d/wk for 2 yr, 0.6, 2, 6 mg/kg in 95% ethanol on clipped area of skin 5 d/wk for 2 yr inactive; negative | Species: Rat, Strain/Sex: F344/N / Female (50/Group), Route: Dermal, 2, 6, 18 mg/kg in 95% ethanol on clipped area of skin 5 d/wk for 2 yr, 2, 6, 18 mg/kg in 95% ethanol on clipped area of skin 5 d/wk for 2 yr inactive; negative | Species: Rat, Strain/Sex: F344/N / Male (50/Group), Route: Dermal, 2, 6, 18 mg/kg in 95% ethanol on clipped area of skin 5 d/wk for 2 yr, 2, 6, 18 mg/kg in 95% ethanol on clipped area of skin 5 d/wk for 2 yr inactive; negative
